# Assay: solvent given as SMILES
# [1] = in CCCCCCCCC=CCCCCCCCC(=O)OCC(COC(=O)CCCCCCCC=CCCCCCCCC)OC(=O)CCCCCCCC=CCCCCCCCC
# [2] = in CCCCCCCC(=O)OCC(COC(=O)CCCCCCC)OC(=O)CCCCCCC
structure (smiles),measurement,setting,value
C=CC(C)(CCC=C(C)C)OC=O (centres undefined),"solvation free energy, 298 K",in O,-3.6 kcal/mol
CCC=CCCC=O,"solvation free energy, 298 K",in O,-3.19 kcal/mol
O=C(O)Cc1ccccc1,"solvation free energy, 298 K",in C=CCCCCCCC=C,-7.39 kcal/mol
same,"solvation free energy, 298 K",in CCOC(C)=O,-11.1 kcal/mol
same,"solvation free energy, 298 K",in O,-8.74 kcal/mol
COC(=O)C1CC1,"solvation free energy, 298 K",in O,-4.1 kcal/mol
CC(=O)C(C)=O,"solvation free energy, 298 K",in O,-4.3 kcal/mol
C=C(C)CC(C)(C)C,"solvation free energy, 298 K",in CCC(C)=O,-4.34 kcal/mol
same,"solvation free energy, 298 K",in O,2.01 kcal/mol
same,"solvation free energy, 298 K",in OCCO,-1.42 kcal/mol
same,"solvation free energy, 298 K",in OCCOCCO,-2.19 kcal/mol
same,"solvation free energy, 298 K",in OCCOCCOCCO,-2.29 kcal/mol
CC(=O)C(C)C,"solvation free energy, 298 K",in CCCCCCCCCCCCCCCC,-3.52 kcal/mol
same,"solvation free energy, 298 K",in CCCCCCCCO,-4.15 kcal/mol
same,"solvation free energy, 298 K",in O,-3.24 kcal/mol
same,"solvation free energy, 298 K",in [2H]O[2H],-3.22 kcal/mol
CCCCCCCCCCCCCCCCCCCCCC,"solvation free energy, 298 K",in CC(=O)N(C)C,-15 kcal/mol
same,"solvation free energy, 298 K",in CC(C)(C)O,-13.3 kcal/mol
same,"solvation free energy, 298 K",in CCC(C)=O,-13.6 kcal/mol
same,"solvation free energy, 298 K",[1],-13.4 kcal/mol
same,"solvation free energy, 298 K",in CCCCOC(C)=O,-14.1 kcal/mol
same,"solvation free energy, 298 K",in CCOC(C)=O,-13.7 kcal/mol
same,"solvation free energy, 298 K",in CN(C)C=O,-15 kcal/mol
same,"solvation free energy, 298 K",in COC(C)(C)C,-14.9 kcal/mol
same,"solvation free energy, 298 K",in COC(C)=O,-13 kcal/mol
same,"solvation free energy, 298 K",in O,4.87 kcal/mol
CCC(C)C(C)O (centres undefined),"solvation free energy, 298 K",in CCCCCCCC,-4.87 kcal/mol
same,"solvation free energy, 298 K",in CCCCCCCCCC,-4.81 kcal/mol
CCCCO[N+](=O)[O-],"solvation free energy, 298 K",in O,-2.09 kcal/mol
CCCSC(=O)N(CCC)CCC,"solvation free energy, 298 K",in O,-4.13 kcal/mol
CCC(C)C(C)C (centres undefined),"solvation free energy, 298 K",in C=CCCCCCCCCCCCCCC,-3.97 kcal/mol
same,"solvation free energy, 298 K",in CC#N,-3.2 kcal/mol
CCOC(C)OCC,"solvation free energy, 298 K",in ClCCCl,-5.27 kcal/mol
same,"solvation free energy, 298 K",in O,-3.28 kcal/mol
CCOCCO,"solvation free energy, 298 K",in CCCCCC,-4.01 kcal/mol
same,"solvation free energy, 298 K",in CCCCCCC,-3.85 kcal/mol
same,"solvation free energy, 298 K",in COC(C)=O,-5.89 kcal/mol
same,"solvation free energy, 298 K",in ClC(Cl)(Cl)Cl,-4.87 kcal/mol
same,"solvation free energy, 298 K",in ClCCl,-6.06 kcal/mol
same,"solvation free energy, 298 K",in O,-6.7 kcal/mol
CC(=O)c1ccc(C)cc1,"solvation free energy, 298 K",in O,-4.7 kcal/mol
Cc1ccc(O)c(C)c1,"solvation free energy, 298 K",in CCCCCC,-6.51 kcal/mol
same,"solvation free energy, 298 K",in CCCCCCC,-6.48 kcal/mol
same,"solvation free energy, 298 K",in CCCCCCCC,-6.46 kcal/mol
same,"solvation free energy, 298 K",in O,-6.02 kcal/mol
BrCBr,"solvation free energy, 298 K",in CCCCCCCCCCCCCCCC,-3.87 kcal/mol
same,"solvation free energy, 298 K",in CCCCCCCCO,-4.19 kcal/mol
same,"solvation free energy, 298 K",in O,-2.01 kcal/mol
same,"solvation free energy, 298 K",in [2H]O[2H],-2.03 kcal/mol
C#CCCCCC,"solvation free energy, 298 K",in C1CCC2CCCCC2C1,-4.37 kcal/mol
same,"solvation free energy, 298 K",in C1CCC(C2CCCCC2)CC1,-4.33 kcal/mol
same,"solvation free energy, 298 K",in CN(C)C=O,-4.37 kcal/mol
same,"solvation free energy, 298 K",in CS(C)=O,-3.95 kcal/mol
same,"solvation free energy, 298 K",in N#CCCCCC#N,-3.83 kcal/mol
same,"solvation free energy, 298 K",in NCCO,-2.8 kcal/mol
same,"solvation free energy, 298 K",in O,0.59 kcal/mol
same,"solvation free energy, 298 K",in O=Cc1ccco1,-4.12 kcal/mol
same,"solvation free energy, 298 K",in OCc1ccco1,-3.93 kcal/mol
same,"solvation free energy, 298 K",in c1ccc2c(c1)CCCC2,-4.66 kcal/mol
same,"solvation free energy, 298 K",in c1ccc(C2CCCCC2)cc1,-4.56 kcal/mol
Cc1ccc(C)c(O)c1,"solvation free energy, 298 K",in CCCCCC,-6.46 kcal/mol
same,"solvation free energy, 298 K",in CCCCCCC,-6.44 kcal/mol
same,"solvation free energy, 298 K",in CCCCCCCC,-6.44 kcal/mol
same,"solvation free energy, 298 K",in Cc1ccc(C)cc1,-7.72 kcal/mol
same,"solvation free energy, 298 K",in Cc1cccc(C)c1,-7.76 kcal/mol
same,"solvation free energy, 298 K",in Cc1ccccc1C,-7.8 kcal/mol
same,"solvation free energy, 298 K",in O,-5.92 kcal/mol
CC1(C)CCCC2(C)C3CC4C(C31)C42C (centres undefined),"solvation free energy, 298 K",in O,1.12 kcal/mol
Oc1ccc(Cl)cc1Cl,"solvation free energy, 298 K",in CCCCCC,-6.8 kcal/mol
same,"solvation free energy, 298 K",in CCCCCCC,-6.85 kcal/mol
same,"solvation free energy, 298 K",in CCCCCCCC,-6.82 kcal/mol
same,"solvation free energy, 298 K",[1],-7.49 kcal/mol
same,"solvation free energy, 298 K",in CCCCCCCCCC,-6.79 kcal/mol
same,"solvation free energy, 298 K",in Cc1ccc(C)cc1,-7.58 kcal/mol
same,"solvation free energy, 298 K",in Cc1cccc(C)c1,-7.56 kcal/mol
same,"solvation free energy, 298 K",in Cc1ccccc1C,-7.64 kcal/mol
same,"solvation free energy, 298 K",in O,-4.98 kcal/mol
CC(C)Cl,"solvation free energy, 298 K",in C=CCCCCCCCCCCCCCC,-2.78 kcal/mol
same,"solvation free energy, 298 K",in O,-0.23 kcal/mol
CC(F)F,"solvation free energy, 298 K",in CC(C)(C)O,-1.42 kcal/mol
same,"solvation free energy, 298 K",in CC(C)CCO,-1.3 kcal/mol
same,"solvation free energy, 298 K",in CC(C)CO,-1.35 kcal/mol
same,"solvation free energy, 298 K",in CC(C)O,-1.5 kcal/mol
same,"solvation free energy, 298 K",in CCC(C)(C)O,-1.36 kcal/mol
same,"solvation free energy, 298 K",in CCC(C)CO,-1.23 kcal/mol
same,"solvation free energy, 298 K",in CCC(C)O,-1.32 kcal/mol
same,"solvation free energy, 298 K",in CCC(O)CC,-1.24 kcal/mol
same,"solvation free energy, 298 K",in CCCC(C)O,-1.21 kcal/mol
same,"solvation free energy, 298 K",[2],-1.37 kcal/mol
same,"solvation free energy, 298 K",in CCCCCCCCC,-1.08 kcal/mol
same,"solvation free energy, 298 K",in CCCCCCCCO,-1.07 kcal/mol
same,"solvation free energy, 298 K",in CCCCCO,-1.28 kcal/mol
same,"solvation free energy, 298 K",in CCCCO,-1.36 kcal/mol
same,"solvation free energy, 298 K",in CCCO,-1.49 kcal/mol
same,"solvation free energy, 298 K",in CN1CCCC1=O,-2.02 kcal/mol
same,"solvation free energy, 298 K",in CN(C)C=O,-2.11 kcal/mol
same,"solvation free energy, 298 K",in CO,-1.91 kcal/mol
same,"solvation free energy, 298 K",in Cc1ccc(C)cc1,-1.62 kcal/mol
same,"solvation free energy, 298 K",in Cc1cccc(C)c1,-1.63 kcal/mol
same,"solvation free energy, 298 K",in Cc1ccccc1C,-1.62 kcal/mol
same,"solvation free energy, 298 K",in O,-0.12 kcal/mol
Cc1ccc(C(=O)N(C)C)cc1,"solvation free energy, 298 K",in O,-9.76 kcal/mol
Clc1cc2c(cc1Cl)Oc1ccccc1O2,"solvation free energy, 298 K",in O,-3.56 kcal/mol
Clc1cccc(Cl)c1Cl,"solvation free energy, 298 K",in CCCCCC,-6.92 kcal/mol
same,"solvation free energy, 298 K",[1],-7.12 kcal/mol
same,"solvation free energy, 298 K",in CCCCCCCCO,-7.08 kcal/mol
same,"solvation free energy, 298 K",in O,-1.24 kcal/mol
CNC1CCCCC1,"solvation free energy, 298 K",in C1CCCCC1,-6.05 kcal/mol
C1CC1,"solvation free energy, 298 K",in C1COCCO1,-1.94 kcal/mol
same,"solvation free energy, 298 K",in CC(C)O,-1.58 kcal/mol
same,"solvation free energy, 298 K",in CCCCCC,-1.98 kcal/mol
same,"solvation free energy, 298 K",in CCCCO,-1.72 kcal/mol
same,"solvation free energy, 298 K",in CCCO,-1.57 kcal/mol
same,"solvation free energy, 298 K",in O,0.75 kcal/mol
CC(C)C1=CC2=CCC3C(C)(C)CCCC3(C)C2CC1 (centres undefined),"solvation free energy, 298 K",in O,-0.08 kcal/mol
FC(F)(F)F,"solvation free energy, 298 K",in Brc1ccccc1,1.57 kcal/mol
same,"solvation free energy, 298 K",in C1CCOC1,1 kcal/mol
same,"solvation free energy, 298 K",in C1COCCO1,1.38 kcal/mol
same,"solvation free energy, 298 K",in CC(C)(C)O,0.8 kcal/mol
same,"solvation free energy, 298 K",in CC(C)CC(C)(C)C,0.56 kcal/mol
same,"solvation free energy, 298 K",in CC(C)CO,1 kcal/mol
same,"solvation free energy, 298 K",in CCC(C)O,1.01 kcal/mol
same,"solvation free energy, 298 K",in CCCCCC,0.49 kcal/mol
same,"solvation free energy, 298 K",in CCCCCCC,0.62 kcal/mol
same,"solvation free energy, 298 K",in CCCCCCCC,0.72 kcal/mol
same,"solvation free energy, 298 K",[2],1.4 kcal/mol
same,"solvation free energy, 298 K",in CCCCCCCCC,0.8 kcal/mol
same,"solvation free energy, 298 K",in CCCCCCCCCC,0.86 kcal/mol
same,"solvation free energy, 298 K",in CCCCCCCCCCC,0.92 kcal/mol
same,"solvation free energy, 298 K",in CCCCCCCCCCCC,0.97 kcal/mol
same,"solvation free energy, 298 K",in CCCCCCCCCCCCC,1.02 kcal/mol
same,"solvation free energy, 298 K",in CCCCCCCCCCCCCC,1.06 kcal/mol
same,"solvation free energy, 298 K",in CCCCCCCCCCCCCCC,1.1 kcal/mol
same,"solvation free energy, 298 K",in CCCCCCCCCCCCCCCC,1.11 kcal/mol
same,"solvation free energy, 298 K",in CCCCCCCCCCCO,1.39 kcal/mol
same,"solvation free energy, 298 K",in CCCCCCCCCCO,1.36 kcal/mol
same,"solvation free energy, 298 K",in CCCCCCCCCO,1.32 kcal/mol
same,"solvation free energy, 298 K",in CCCCCCCCO,1.27 kcal/mol
same,"solvation free energy, 298 K",in CCCCCCCO,1.25 kcal/mol
same,"solvation free energy, 298 K",in CCCCCCO,1.21 kcal/mol
same,"solvation free energy, 298 K",in CCCCCO,1.16 kcal/mol
same,"solvation free energy, 298 K",in CCCCO,1.1 kcal/mol
same,"solvation free energy, 298 K",in CCCO,1.04 kcal/mol
same,"solvation free energy, 298 K",in CCO,0.98 kcal/mol
same,"solvation free energy, 298 K",in CN1CCCC1=O,1.8 kcal/mol
same,"solvation free energy, 298 K",in CN(C)C=O,1.56 kcal/mol
same,"solvation free energy, 298 K",in CO,1 kcal/mol
same,"solvation free energy, 298 K",in Cc1ccc(C)cc1,1.11 kcal/mol
same,"solvation free energy, 298 K",in Cc1cccc(C)c1,1.13 kcal/mol
same,"solvation free energy, 298 K",in Cc1ccccc1C,1.21 kcal/mol
same,"solvation free energy, 298 K",in ClC(Cl)(Cl)Cl,0.82 kcal/mol
same,"solvation free energy, 298 K",in Clc1ccccc1,1.3 kcal/mol
same,"solvation free energy, 298 K",in O,3.13 kcal/mol
same,"solvation free energy, 298 K",in O=C1CCCC1,1.36 kcal/mol
same,"solvation free energy, 298 K",in O=C1CCCCC1,1.41 kcal/mol
O=C(O)c1cc(-c2ccc(F)cc2F)ccc1O,"solvation free energy, 298 K",in O,-9.4 kcal/mol
Cc1cccc2ccccc12,"solvation free energy, 298 K",in CCO,-7.47 kcal/mol
same,"solvation free energy, 298 K",in O,-2.32 kcal/mol
same,"solvation free energy, 298 K",in OCCOCCO,-7.33 kcal/mol

# Reference: the CombiSolv-Exp solvation set (Vermeire and Green 2021)
